Measurements published in US20240190880A1 (THE REGENTS OF THE UNIVERSITY OF MICHIGAN, priority 2021, published 2024).

Biological target: T1, ER (Homo sapiens, UniProt P03372)
T1 construct: host or cells: T47D and MCF7 human breast cancer cells
T1 sequence (P03372 1-595): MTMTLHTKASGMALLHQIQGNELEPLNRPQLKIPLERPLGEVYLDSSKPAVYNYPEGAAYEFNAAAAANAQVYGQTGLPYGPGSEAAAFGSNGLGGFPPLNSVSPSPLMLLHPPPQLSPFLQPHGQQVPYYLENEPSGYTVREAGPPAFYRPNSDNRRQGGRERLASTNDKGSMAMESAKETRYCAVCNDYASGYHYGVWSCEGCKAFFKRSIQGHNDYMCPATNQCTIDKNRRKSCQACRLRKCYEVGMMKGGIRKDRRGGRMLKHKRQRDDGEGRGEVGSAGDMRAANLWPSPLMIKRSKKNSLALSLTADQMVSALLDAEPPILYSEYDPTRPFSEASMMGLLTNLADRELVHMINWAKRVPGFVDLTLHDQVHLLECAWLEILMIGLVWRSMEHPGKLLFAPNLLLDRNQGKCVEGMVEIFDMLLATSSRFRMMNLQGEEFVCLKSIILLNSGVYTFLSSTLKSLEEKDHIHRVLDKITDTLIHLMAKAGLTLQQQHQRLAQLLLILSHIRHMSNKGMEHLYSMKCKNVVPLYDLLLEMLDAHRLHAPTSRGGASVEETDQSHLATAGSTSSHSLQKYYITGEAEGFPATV
Assay: ER degradation activity, in-cell western blot analysis in T47D cells
Assay type: cell-based
Conditions: 16 hours, Table A does not say which cell line (T47D or MCF7), read-out: Potency (DC50)
In short: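 ER protein remaining after 16 h compound exposure is quantified in T47D cells by in-cell western, with a no-primary-antibody background control. Values are percentages of DMSO-treated signal.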

Row | DC50 [nM] | SMILES
1 | > 100 | C[C@@H]1Cc2cc(O)ccc2[C@@H](c2c(F)cc(N3CCC(C(=O)N4CCC(N5Cc6cc7c(cc6C5)C(=O)N(C5CCC(=O)NC5=O)C7=O)CC4)CC3)cc2F)N1CC(F)F (stereo partly drawn) [E 269, 6-(1-(1-(4-((1S,3R)-2-(2,2-difluoroethyl)-6-hydroxy-3-methyl-1,2,3,4-tetrahydroisoquinolin-1-yl)-3,5-difluorophenyl)piperidine-4-carbonyl)piperidin-4-yl)-2-(2,6-dioxopiperidin-3-yl)-6,7-dihydropyrrolo[3,4-f]isoindole-1,3(2H,5H)-dione]
2 | < 10 | O=C1CCC(N2C(=O)c3cc4c(cc3C2=O)CN(C2CCN(CC3CCN(c5ccc([C@@H]6c7ccc(O)cc7CC[C@@H]6c6ccccc6)cc5)CC3)CC2)C4)C(=O)N1 (stereo partly drawn) [E 271, 2-(2,6-dioxopiperidin-3-yl)-6-(1-((1-(4-((1R,2S)-6-hydroxy-2-phenyl-1,2,3,4-tetrahydronaphthalen-1-yl)phenyl)piperidin-4-yl)methyl)piperidin-4-yl)-6,7-dihydropyrrolo[3,4-f]isoindole-1,3(2H,5H)-dione]
3 | > 100 | O=C1CCC(N2C(=O)c3cc4c(cc3C2=O)CN(CC2CN(CC3CCN(c5ccc([C@@H]6c7ccc(O)cc7CC[C@@H]6c6ccc(F)cc6)cc5)CC3)C2)C4)C(=O)N1 (stereo partly drawn) [E 274, 2-(2,6-dioxopiperidin-3-yl)-6-((1-((1-(4-((1R,2S)-2-(4-fluorophenyl)-6-hydroxy-1,2,3,4-tetrahydronaphthalen-1-yl)phenyl)piperidin-4-yl)methyl)azetidin-3-yl)methyl)-6,7-dihydropyrrolo[3,4-f]isoindole-1,3(2H,5H)-dione]
4 | < 10 | O=C1CCC(N2Cc3cc4c(cc3C2=O)CN(C2CCN(CC3CCN(c5ccc([C@@H]6c7ccc(O)cc7CC[C@@H]6c6ccc(F)cc6)cc5)CC3)CC2)C4)C(=O)N1 (stereo partly drawn) [E 275, 3-(6-(1-((1-(4-((1R,2S)-2-(4-fluorophenyl)-6-hydroxy-1,2,3,4-tetrahydronaphthalen-1-yl)phenyl)piperidin-4-yl)methyl)piperidin-4-yl)-1-oxo-3,5,6,7-tetrahydropyrrolo[3,4-f]isoindol-2(1H)-yl)piperidine-2,6-dione]
5 | > 100 | O=C1CCC(N2C(=O)c3cc4c(cc3C2=O)CN(CC2CCN(CC3CN(c5ccc([C@@H]6c7ccc(O)cc7CC[C@@H]6c6ccc(F)cc6)cc5)C3)CC2)C4)C(=O)N1 (stereo partly drawn) [E 277, 2-(2,6-dioxopiperidin-3-yl)-6-((1-((1-(4-((1R,2S)-2-(4-fluorophenyl)-6-hydroxy-1,2,3,4-tetrahydronaphthalen-1-yl)phenyl)azetidin-3-yl)methyl)piperidin-4-yl)methyl)-6,7-dihydropyrrolo[3,4-f]isoindole-1,3(2H,5H)-dione]
6 | > 100 | O=C1CCC(N2C(=O)c3cc4c(cc3C2=O)CN(CC2CN(CC3CN(c5ccc([C@@H]6c7ccc(O)cc7CC[C@@H]6c6ccc(F)cc6)cc5)C3)C2)C4)C(=O)N1 (stereo partly drawn) [E 278, 2-(2,6-dioxopiperidin-3-yl)-6-((1-((1-(4-((1R,2S)-2-(4-fluorophenyl)-6-hydroxy-1,2,3,4-tetrahydronaphthalen-1-yl)phenyl)azetidin-3-yl)methyl)azetidin-3-yl)methyl)-6,7-dihydropyrrolo[3,4-f]isoindole-1,3(2H,5H)-dione]
7 | > 100 | C[C@@H]1Cc2c([nH]c3ccccc23)[C@@H](c2ccc(N3CCC4(CCN(C(=O)CN5Cc6cc7c(cc6C5)C(=O)N(C5CCC(=O)NC5=O)C7=O)CC4)CC3)cn2)N1CC(F)F (stereo partly drawn) [E 280, 6-(2-(9-(6-((1S,3R)-2-(2,2-difluoroethyl)-3-methyl-2,3,4,9-tetrahydro-1H-pyrido[3,4-b]indol-1-yl)pyridin-3-yl)-3,9-diazaspiro[5.5]undecan-3-yl)-2-oxoethyl)-2-(2,6-dioxopiperidin-3-yl)-6,7-dihydropyrrolo[3,4-f]isoindole-1,3(2H,5H)-dione]

The next lines start with the molecule.

Row | SMILES | DC50 [nM]
8 | C[C@@H]1Cc2cc(O)ccc2[C@@H](c2c(F)cc(N3CCC(CN4CCC(N5Cc6cc7c(cc6C5)C(=O)N(C5CCC(=O)NC5=O)C7=O)CC4)CC3)cc2F)N1CC(F)F (stereo partly drawn) [E 270, 6-(1-((1-(4-((1S,3R)-2-(2,2-difluoroethyl)-6-hydroxy-3-methyl-1,2,3,4-tetrahydroisoquinolin-1-yl)-3,5-difluorophenyl)piperidin-4-yl)methyl)piperidin-4-yl)-2-(2,6-dioxopiperidin-3-yl)-6,7-dihydropyrrolo[3,4-f]isoindole-1,3(2H,5H)-dione] | > 100
9 | O=C1CCC(N2C(=O)c3cc4c(cc3C2=O)CN(C2CN(CC3CCN(c5ccc([C@@H]6c7ccc(O)cc7CC[C@@H]6c6ccccc6)cc5)CC3)C2)C4)C(=O)N1 (stereo partly drawn) [E 272, 2-(2,6-dioxopiperidin-3-yl)-6-(1-((1-(4-((1R,2S)-6-hydroxy-2-phenyl-1,2,3,4-tetrahydronaphthalen-1-yl)phenyl)piperidin-4-yl)methyl)azetidin-3-yl)-6,7-dihydropyrrolo[3,4-f]isoindole-1,3(2H,5H)-dione] | > 100
10 | O=C1CCC(N2C(=O)c3cc4c(cc3C2=O)CN(C2CCN(CC3CCN(c5ccc([C@@H]6c7ccc(O)cc7CC[C@@H]6c6ccc(F)cc6)cc5)CC3)CC2)C4)C(=O)N1 (stereo partly drawn) [E 273, 2-(2,6-dioxopiperidin-3-yl)-6-(1-((1-(4-((1R,2S)-2-(4-fluorophenyl)-6-hydroxy-1,2,3,4-tetrahydronaphthalen-1-yl)phenyl)piperidin-4-yl)methyl)piperidin-4-yl)-6,7-dihydropyrrolo[3,4-f]isoindole-1,3(2H,5H)-dione] | 10 to 100
11 | O=C1CCC(N2C(=O)c3cc4c(cc3C2=O)CN(C2CCN(CC3CN(c5ccc([C@H]6c7ccc(O)cc7CC[C@H]6c6ccc(F)cc6)cc5)C3)CC2)C4)C(=O)N1 (stereo partly drawn) [E 276, 2-(2,6-dioxopiperidin-3-yl)-6-(1-((1-(4-((1S,2R)-2-(4-fluorophenyl)-6-hydroxy-1,2,3,4-tetrahydronaphthalen-1-yl)phenyl)azetidin-3-yl)methyl)piperidin-4-yl)-6,7-dihydropyrrolo[3,4-f]isoindole-1,3(2H,5H)-dione] | > 100
12 | O=C1CCC(N2Cc3cc4c(cc3C2=O)CN(C2CCN(CC3CN(c5ccc([C@H]6c7ccc(O)cc7CC[C@H]6c6ccc(F)cc6)cc5)C3)CC2)C4)C(=O)N1 (stereo partly drawn) [E 279, 3-(6-(1-((1-(4-((1S,2R)-2-(4-fluorophenyl)-6-hydroxy-1,2,3,4-tetrahydronaphthalen-1-yl)phenyl)azetidin-3-yl)methyl)piperidin-4-yl)-1-oxo-3,5,6,7-tetrahydropyrrolo[3,4-f]isoindol-2(1H)-yl)piperidine-2,6-dione] | 10 to 100
13 | C[C@@H]1Cc2c([nH]c3ccccc23)[C@@H](c2ccc(N3CCC4(CCN(C(=O)CN5Cc6cc7c(cc6C5)C(=O)N(C5CCC(=O)NC5=O)C7=O)CC4)CC3)nc2)N1CC(F)F (stereo partly drawn) [E 281, 6-(2-(9-(5-((1R,3R)-2-(2,2-difluoroethyl)-3-methyl-2,3,4,9-tetrahydro-1H-pyrido[3,4-b]indol-1-yl)pyridin-2-yl)-3,9-diazaspiro[5.5]undecan-3-yl)-2-oxoethyl)-2-(2,6-dioxopiperidin-3-yl)-6,7-dihydropyrrolo[3,4-f]isoindole-1,3(2H,5H)-dione] | 10 to 100
